From publication PMC10266688 (PLOS ONE, 2023)
Where “and” joins values, the source holds several entries; their conditions need not be identical. Equal entries are not always repeated.

Key:
[1] = test system: HeLa cells; assay: MTT cytotoxicity assay, HeLa cells, 72 h; assay type: cell-based; details: Homo sapiens, 72 h treatment
[2] = test system: SKOV3 cells; assay: MTT cytotoxicity assay, SKOV3 cells, 72 h; assay type: cell-based; details: Homo sapiens, SK-OV-3; 72 h treatment
[3] = test system: TOV21G and ES2 cells; assay: Annexin V apoptosis assay; details: TOV21G and ES2, 12 h
[4] = target: T1, 42kDa cellular protein (RPN13) (Homo sapiens, UniProt Q16186); assay: Competition for RA190B binding in HeLa cell lysate; details: HeLa lysate pre-treated with compound (5 μM) 45 min 4°C, then RA190B (20 μM)
T1 construct: endogenous in cells; host or cells: HeLa cell lysate
T1 sequence (Q16186 2-407): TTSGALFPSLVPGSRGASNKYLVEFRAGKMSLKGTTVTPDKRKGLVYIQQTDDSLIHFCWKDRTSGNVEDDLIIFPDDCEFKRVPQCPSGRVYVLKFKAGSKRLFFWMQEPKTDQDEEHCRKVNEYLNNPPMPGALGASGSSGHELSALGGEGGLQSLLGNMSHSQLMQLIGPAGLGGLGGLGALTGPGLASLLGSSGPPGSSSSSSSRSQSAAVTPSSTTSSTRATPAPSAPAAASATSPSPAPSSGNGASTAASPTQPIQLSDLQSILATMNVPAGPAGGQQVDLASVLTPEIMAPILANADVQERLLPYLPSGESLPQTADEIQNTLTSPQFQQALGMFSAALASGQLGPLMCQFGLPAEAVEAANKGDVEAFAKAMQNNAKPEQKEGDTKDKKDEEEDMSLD
Method: NEM (1 mM) used as positive control.

[5] = test system: TC1-OVA cells; assay: Antigen presentation (H-2Kb/[…]) by TC1-OVA cells, flow cytometry; assay type: cell-based, mouse; details: 0.25 μM, 12 h
Method: TC1 cells stably expressing Ovalbumin (TC1-OVA) were plated (125,000 cells/well) in a 6 well plate in 2 mL RPMI complete medium.
C) TC1-OVA cells were plated (125,000 cells/well) in a 6 well plate in 2 mL/well in complete medium.

[6] = test system: proteasome (4UbFL reporter); assay: 4UbFL reporter in ES2-4UbFL tumor and leg muscle of nude mice; assay type: in vivo, mouse; details: single IP dose Up284 20mg/kg or bortezomib 0.75 mg/kg, 4 h and 24 h
Method: A-C) Female nude mice were inoculated IP with ES2-luc cells, a human ovarian cancer line expressing luciferase. […] The IP tumor tissue and electroporated normal muscle tissue, being spatially distinct, were identified with separate regions of interest (ROI) after simultaneous imaging with IVIS.
Briefly mice were inoculated IP with ES2 cells stably expressing 4UbFL. After 48 h, the mice were injected with luciferin, imaged and then randomized into 3 groups (n = 5/group). Next, leg muscle of each mouse was electroporated with 4UbFL plasmid (considered as normal tissue). After 48 h (i.e. day 4) the mice were re-imaged and basal bioluminescence (0 h) was separately measured in the leg muscle and peritoneal ROIs.

[7] = Repeat dosing toxicity study: hematologic parameters; details: female CD1 mice, Up284 20 mg/kg, Bortezomib 1 mg/kg
Method: The mice were divided into three groups consisting of three female CD1 mice each. […] Terminal blood sampling for hematological and serum biochemical analysis was performed on Day 7 of the study, 24 h after the last dosing. […] Terminal bleeding and euthanasia were performed on Day 7, 24 h after the third dosing. Blood collection was carried out after 6 h fasting. Animals were injected IP with 2,2,2-tribromoethanol (200 mg/kg) and the blood was collected from orbital sinuses into dry microtainers without anticoagulant. For the serum collection, the tubes with collected blood were held at RT for 15–60 min after blood drawing to form a clot, and then were centrifuged at 9000 rpm for 20 min at 4°C. The collected serum was frozen within 60–80 min after blood drawing and was stored at -20°C for further clinical chemistry analysis. For the hematological study, 25 μL of fresh blood was quickly mixed with an equal volume of 0.36% solution of K2EDTA in saline. Assessment of the hematological parameters was performed using the BIO TE hematology analyzer MCL-3124 and consumable reagents (Cormay) within 2 h of the blood draw. For clinical chemistry analyses, ASAT, ALAT, ALP, LDH, GGT, CK, Creatinine, Urea and TP were determined in the serum using commercial kits according to the manufacturer’s instructions.

[8] = test system: proteasome (4UbFL reporter); assay: 4UbFL reporter assay in ES2 cells; assay type: cell-based, human; details: 4 h
Method: Sub-confluent cultures of cells were transfected with 4UbFL plasmid using TransIT 2020 reagent (Mirus Bio). Cells were seeded at 10,000 cells/well in 96-well plates 48 h post transfection, and incubated with compounds or vehicle (DMSO) at the doses and for the times indicated. Luciferase activity in cell lysate was determined with a luciferase assay kit (Promega) according to the manufacturer’s instructions. Bioluminescence was measured using a Glomax Multidetection system (Promega).
Two days later, luciferin was injected IP and the baseline enzymic activity of luciferase in the transduced muscle tissue was visualized as bioluminescence within this region of interest (ROI) using an IVIS imager. […]. After 4h, 24h and 48h the mice were again injected with luciferin, imaged and bioluminescence was quantified (Fig 5B). […] A) ES2 cells stably transduced with the 4UbFL reporter plasmid were treated with compounds at indicated doses for 4 h. The cells were then washed, lysed and their luminescence measured by a luminometer after addition of luciferin. B) Female CD1 mice electroporated with 4UbFL plasmid in their leg muscle. After 48 h, the mice were injected with luciferin, imaged by IVIS for their basal bioluminescence and randomized into two groups of five. […]. D) Up284 tissue distribution. […].

[9] = test system: HMW polyUb proteins in ES2 cells; assay: Western blot for polyubiquitinated proteins; details: by 12 h

Row | Structure (SMILES) | IC50 [1] [nM] | IC50 [2] [nM] | competition for RA190B binding to the 42KDa cellular protein [4] | further results
1 | N#Cc1ccc(/C=C2/C(=O)/C(=C/c3ccc(C#N)cc3)C23CCN(C(=O)c2ccccc2)CC3)cc1 [Up288] | 280 | 390 | – | –
2 | CCCC(CCC)C(=O)N1CCC2(CC1)/C(=C\c1ccc(C#N)cc1)C(=O)/C2=C/c1ccc(C#N)cc1 [Up291] | 250 | 420 | – | –
3 | N.N.[Cl][Pt][Cl] [cisplatin, reference compound] | – | – | – | Annexin-V positive cells, single agent [3]: minimal impact
4 | N#Cc1ccc(/C=C2/C(=O)/C(=C/c3ccc(C#N)cc3)C23CCNC3)cc1 [Up302] | 80 | 170 | – | –
5 | N#Cc1ccc(/C=C2/C(=O)/C(=C/c3ccc(C#N)cc3)C23CCN(C(=O)C(F)(F)F)CC3)cc1 [Up290] | 150 | 290 | – | –
6 | C=CC(=O)N1CCC2(C1)/C(=C\c1ccc(C#N)cc1)C(=O)/C2=C/c1ccc(C#N)cc1 (centres unmarked) [Up306] | 50 | 120 | – | –
7 | CC(C)C[C@H](NC(=O)[C@H](Cc1ccccc1)NC(=O)c1cnccn1)B(O)O [bortezomib] | – | – | did not compete | MHC class I antigen presentation (SIINFEKL on H-2Kb) [5]: did not; 4UbFL bioluminescence signal in muscle tissue vs tumor [6]: similarly enhanced the bioluminescence signal; MPV ([7]; group Mean): 5.70 fL; MPV ([7]; individual mice): 5.70 fL and 5.60 fL and 5.80 fL
8 | Cl.N[C@@H](Cc1ccccc1)C(=O)N1C/C(=C/c2ccc(Cl)c(Cl)c2)C(=O)/C(=C\c2ccc(Cl)c(Cl)c2)C1 [RA190, reference compound] | – | – | competed | MHC class I antigen presentation (SIINFEKL on H-2Kb) [5]: enhance MHC class I presentation; stabilization of 4UbFL reporter (fold increase in luminescence) [8]: dose-dependent stabilization; accumulation of HMW polyUb proteins [9]: profound accumulation
9 | C=CC(=O)N1CCC2(CC1)/C(=C\c1ccc(C#N)cc1)C(=O)/C2=C/c1ccc(C#N)cc1 [Up285] | 25 | 60 | competed | –
